Patent US8293777B2, “Angiotensin II receptor antagonists” (Merck Sharp & Dohme, Corp., priority 2008, dated 2012)

Columns and labels:
[1] = tested on: conscious telemetered dogs; assay: Systolic blood pressure lowering, oral administration to conscious telemetered dogs; type: in vivo; details: orally administered at 3 mpk
Source text: Several examples were studied for systolic blood pressure lowering when orally administered to conscious telemetered dogs at 3 mpk (see Data Table 1).

[2] = tested on: isolated rabbit thoracic aorta preparations; assay: Vessel relaxation in isolated rabbit thoracic aorta preparations; type: cell-based; details: Oryctolagus cuniculus; rabbit aortic rings precontracted with noradrenaline, functional endothelium
Method: The ability of the compounds to induce vasorelaxation was tested in vitro in isolated rabbit thoracic aorta preparations (Wanstall J. C. et al., Br. J. Pharmacol., 134:463-472, 2001). Male New Zealand rabbits were anaesthetized with thiopental-Na (50 mg/kg, iv), sacrificed by exsanguinations and then the thorax was opened and the aorta dissected. Aortic ring preparations (4 mm in length) were set up in physiological salt solution (PSS) at 37° C. in small organ chambers (5 ml). The composition of PSS was (mM): NaCl 130, NaHCO3 14.9, KH2PO4 1.2, MgSO4 1.2, HEPES 10, CaCl2, ascorbic acid […] and glucose 1.1 (95% O2/5% CO2; pH 7.4). Each ring was mounted under 2 g passive tension. Isometric tension was recorded with a Grass transducer (Grass FT03) attached to a BIOPAC MP150 System. Preparations were allowed to equilibrate for 1 h, and then contracted submaximally with noradrenaline (NA, 1 μM) and, when the contraction was stable, acetylcholine (ACh, 10 μM) was added. A relaxant response to ACh indicated the presence of a functional endothelium. […] When a stable precontraction was reached, a cumulative concentration-response curve to either of the vasorelaxant agents was obtained in the presence of a functional endothelium. Each arterial ring was exposed to only one combination of inhibitor and vasorelaxant. […]
Example 2 was evaluated for vessel relaxation.

Row | Compound | Approximate change in systolic blood pressure ([1]; 1-6 h) [mm Hg] | Approximate change in systolic blood pressure ([1]; 6-12 h) [mm Hg] | Approximate change in systolic blood pressure ([1]; 12-18 h) [mm Hg] | Approximate change in systolic blood pressure ([1]; 1-6 h, 3 mg/kg) [mm Hg] | Approximate change in systolic blood pressure ([1]; 6-12 h, 3 mg/kg) [mm Hg] | Approximate change in systolic blood pressure ([1]; 12-18 h, 3 mg/kg) [mm Hg] | EC50 [2] [µM]
1 | CCCCc1nc(Cl)c(C(=O)O[C@H](C)OC(=O)[C@@H]2C[C@H](OC)[C@@H](O[N+](=O)[O-])C2)n1Cc1ccc(-c2ccccc2-c2nnn[nH]2)cc1 [Example 7] | −9 | −1 | 2 |  |  |  | 
2 | CCOc1nc2cccc(C(=O)OC(C)OC(=O)[C@@H]3C[C@H](OC)[C@@H](O[N+](=O)[O-])C3)c2n1Cc1ccc(-c2ccccc2-c2nnn[nH]2)cc1 (stereo partly drawn) [Example 2, D1, 1-({[(1R,3S,4S)-3-methoxy-4-(nitrooxy)cyclopentyl]carbonyl}oxy)ethyl 2-ethoxy-1-{[2′-(1H-tetrazol-5-yl)biphenyl-4-yl]methyl}-1H-benzimidazole-7-carboxylate] |  |  |  | −15 | −11 | −1 | 
3 | CCCCC(=O)N(Cc1ccc(-c2ccccc2-c2nnn[nH]2)cc1)[C@H](C(=O)O[C@@H](C)OC(=O)[C@@H]1C[C@H](OC)[C@@H](O[N+](=O)[O-])C1)C(C)C [Example 5, (1S)-1-({[(1R,3S,4S)-3-methoxy-4-(nitrooxy)cyclopentyl]carbonyl}oxy)ethyl N-pentanoyl-N-{[2′-(1H-tetrazol-5-yl)biphenyl-4-yl]methyl}-L-valinate] | −8 | −2 | 8 |  |  |  | 
4 | CCOc1nc2cccc(C(=O)OC(C)OC(=O)[C@@H]3C[C@H](OC)[C@@H](O[N+](=O)[O-])C3)c2n1Cc1ccc(-c2ccccc2-c2nnn[nH]2)cc1 (stereo partly drawn) [Example 2, D2, 1-({[(1R,3S,4S)-3-methoxy-4-(nitrooxy)cyclopentyl]carbonyl}oxy)ethyl 2-ethoxy-1-{[2′-(1H-tetrazol-5-yl)biphenyl-4-yl]methyl}-1H-benzimidazole-7-carboxylate] |  |  |  | −19 | −12 | −5 | > 25
